Measured values taken from patent US20240293418A1, “COMBINATION THERAPY FOR TREATING CANCER” (Epizyme, Inc., priority 2016, published 2024).
Where two headings read alike, the source gives them in different places.

Experiments:
MM1.S = experiment: 7 day pretreatment + 4-day co-treatment combination model (Cell Titer Glo); details: read-out: 4-day IC50
Source text: (§1) Assay plates were developed for endpoint analysis using Cell Titer Glo to measure ATP content, which was used as an indicator of cell viability. DMSO concentration was kept constant throughout the assay at less than 0.2% v/v.
(§2) Cell lines: The cell lines MI1.S and U266B1 were obtained from American Type Culture Collection (ATCC; Rockville, MD). The cell lines LP-1, L-363 were obtained from Deutsche Sammlung von Mikroorganismen and Zellkulturen (DSMZ; Braunschweig, Germany) and the cell line KMS-28BM was obtained from Japanese Collection of Research Bioresources Cell Bank (JCRB, Osaka Japan). All cells were maintained as instructed by the supplier and cultures were maintained at 37° C. in a humidified atmosphere and 5% CO2.
(§3) Loewe volumes greater than 1 denoted synergy and volumes <−1 denoted antagonism.

LP-1 [1] = experiment: as above; details: for IC50: read-out: 4-day IC50
Source text: as §1, §2, §3

KMS-28-BM = experiment: as above; details: for IC50: read-out: 4-day IC50
Procedure: as §1
(§4) All cells were maintained as instructed by the supplier and cultures were maintained at 37° C. in a humidified atmosphere and 5% CO2.
as §3

L-363 = experiment: as above; details: for IC50: read-out: 4-day IC50
Source text: as §1, §2, §3

MOLP-8 [2] = experiment: as above; details: second agent + tazemetostat, MOLP-8 t(11;14)
Procedure: as §1, §4, §3

U266 = experiment: as above; details: for IC50: read-out: 4-day IC50
Source text: as §1, §2, §3

Jeko-1 [3] = experiment: mantle cell lymphoma 7 day pretreatment + 4-day co-treatment model (Cell Titer Glo)
Source text: (§5) Cells were then co-treated in triplicate with a second compound, 3-fold serially diluted for additional 4 days. After this time, plates were developed for endpoint analysis using Cell Titer Glo to measure ATP content, which is used as an indicator of cell viability.
(§6) A Loewe volume greater than 1 denoted synergy. A Loewe volume between −1 and 1 denoted additivity, and a negative Loewe volume of less than −1, denoted antagonism.

Jeko-1 [4] = experiment: mantle cell lymphoma 7 day co-treatment model; format: cell-based
LP-1 [5] = experiment: 7-day co-treatment combination model (Cell Titer Glo); details: second agent + tazemetostat; 7-day co-treatment; LP-1 t(4;14)
Procedure: as §1, §4, §3

MOLP-8 [6] = experiment: as above; details: second agent + tazemetostat; 7-day co-treatment; MOLP-8 t(11;14)
Procedure: as §1, §4, §3

Granta-519 [7] = experiment: mantle cell lymphoma 7 day co-treatment model; format: cell-based
Granta-519 [8] = experiment: mantle cell lymphoma 7 day pretreatment + 4-day co-treatment model (Cell Titer Glo)
Source text: as §5, §6

[9] = second agent + tazemetostat, 7 day pretreatment + 4-day co-treatment, Jeko-1
[10] = second agent + tazemetostat, 7 day co-treatment
[11] = second agent + tazemetostat, 7 day pretreatment + 4-day co-treatment, LP-1 t(4;14)
[12] = second agent + tazemetostat, 7 day pretreatment + 4-day co-treatment, KMS-28-BM t(4;14)
[13] = second agent + tazemetostat, 7 day pretreatment + 4-day co-treatment, L-363 t(20;22)
[14] = second agent + tazemetostat, 7 day pretreatment + 4-day co-treatment, U266 t(11;14)
[15] = second agent + tazemetostat, 7 day pretreatment + 4-day co-treatment, Granta-519

IC50 (MM1.S; Homo sapiens, MM1.S, 96 h) [nM] | IC50 (U266; Homo sapiens, U-266, 96 h) [nM] | SMILES | combinatorial effect by Loewe volumes (MOLP-8 [2]) | IC50 (LP-1 [1]; Homo sapiens, LP-1, 96 h) [nM] | combinatorial effect by Loewe volumes (LP-1 [1]; [11]) | IC50 (KMS-28-BM; KMS-28BM, 96 h) [nM] | combinatorial effect by Loewe volumes (KMS-28-BM; [12]) | IC50 (L-363; Homo sapiens, L-363, 96 h) [nM] | combinatorial effect by Loewe volumes (L-363; [13]) | combinatorial effect by Loewe volumes (U266; [14]) | also measured
 |  | CC(C)C[C@H](NC(=O)CNC(=O)c1cc(Cl)ccc1Cl)B(O)O [Ixazomib, ixazomib] | A (Additive) |  |  |  |  |  |  |  | IC50 (MM1.S; single agent, MM1.S t(14; 16)): 12 nM; combinatorial effect by Loewe volumes (LP-1 [1]): S (key: Antagonism; Synergy; Additive; X: Not Tested); IC50 (LP-1 [1]; single agent, LP-1 t(4; 14)): 12 nM; combinatorial effect by Loewe volumes (KMS-28-BM): A (key: Antagonism; Synergy; Additive; X: Not Tested); IC50 (KMS-28-BM; single agent, KMS-28-BM t(4; 14)): 19 nM; combinatorial effect by Loewe volumes (L-363): A (key: Antagonism; Synergy; Additive; X: Not Tested); IC50 (L-363; single agent, L-363 t(20; 22)): 47 nM; combinatorial effect by Loewe volumes (U266): S (key: Antagonism; Synergy; Additive; X: Not Tested); IC50 (U266; single agent, U266 t(11; 14)): 1.5 nM
305 | > 10000 | Nc1cccc2c1CN(C1CCC(=O)NC1=O)C2=O (stereo not shown) [Lenalidomide, lenalidomide] | S (Synergy) | 973 | S (Synergy) | > 10000 | S (Synergy) | 379 | S (Synergy) | S (Synergy) | IC50 (Jeko-1 [3]; Homo sapiens, JeKo-1, 96 h, read-out: Second agent IC50): 902 nM; Bliss Volume (Jeko-1 [3]; [9]): 2.67; HSA Volume (Jeko-1 [3]; [9]): 4.46; Loewe Volume (Jeko-1 [3]; [9]): 4.35; Synergy Score (Jeko-1 [3]; [9]): 4.01; Best CI (Jeko-1 [4]; [10]): 0.35; Bliss Volume (Jeko-1 [4]; [10]): 1.86; HSA Volume (Jeko-1 [4]; [10]): 2.74; Loewe Volume (Jeko-1 [4]; [10]): 2.87; Synergy Score (Jeko-1 [4]; [10]): 3.68; IC50 (Jeko-1 [4]; second agent alone, 7 day co-treatment model): 872 nM
158 | > 10000 | C[C@]12C=CC(=O)C=C1CC[C@@H]1[C@@H]2[C@@H](O)C[C@@]2(C)[C@H]1CC[C@]2(O)C(=O)CO [Prednisolone, prednisolone] | S (Synergy) | 36 | S (Synergy) | 36 | S (Synergy) | 100 | A (Additive) | A (Additive) | 
> 10000 | > 10000 | O=C1CCC(N2C(=O)c3ccccc3C2=O)C(=O)N1 (stereo not shown) [Thalidomide, thalidomide] |  | > 10000 |  | > 10000 |  | > 10000 |  |  | 
 |  | CC1(C)CCC(CN2CCN(c3ccc(C(=O)NS(=O)(=O)c4ccc(NCC5CCOCC5)c([N+](=O)[O-])c4)c(Oc4cnc5[nH]ccc5c4)c3)CC2)=C(c2ccc(Cl)cc2)C1 [Venetoclax, venetoclax] | A (Additive) |  | S (Synergy) |  | S (Synergy) |  |  |  | combinatorial effect by Loewe volumes (LP-1 [5]): S (Synergy); combinatorial effect by Loewe volumes (MOLP-8 [6]): A (Additive); IC50 (Granta-519 [7]; Homo sapiens, 168 h, second agent alone, 7 day co-treatment model): 41 nM; Best CI (Granta-519 [7]; [10]): 0.43; Bliss Volume (Granta-519 [7]; [10]): 1.76; HSA Volume (Granta-519 [7]; [10]): 3.06; Loewe Volume (Granta-519 [7]; [10]): 2.73; Synergy Score (Granta-519 [7]; [10]): 3.82; IC50 (Granta-519 [8]; Homo sapiens, Granta-519, read-out: Second agent IC50): 58 nM; Best CI (Granta-519 [8]; [15]): 0.09; Bliss Volume (Granta-519 [8]; [15]): 3.95; HSA Volume (Granta-519 [8]; [15]): 7.17; Loewe Volume (Granta-519 [8]; [15]): 6.72; Synergy Score (Granta-519 [8]; [15]): 7.23
1 | 0.5 | CC[C@]1(O)C[C@H]2CN(CCc3c([nH]c4ccccc34)[C@@](C(=O)OC)(c3cc4c(cc3OC)N(C=O)[C@H]3[C@@](O)(C(=O)OC)[C@H](OC(C)=O)[C@]5(CC)C=CCN6CC[C@]43[C@@H]65)C2)C1 [Vincristine, vincristine] |  | 2.3 |  | 1.15 |  | 1 |  |  | 
 |  | O=C(CCCCCCC(=O)Nc1ccccc1)NO [Vorinostat, vorinostat] | A (Additive) | 669 | S (Synergy) |  | S (Synergy) |  | A (Additive) | S (Synergy) | 

SMILES | IC50 (MM1.S; Homo sapiens, MM1.S, 96 h) [nM] | IC50 (U266; Homo sapiens, U-266, 96 h) [nM] | combinatorial effect by Loewe volumes (MOLP-8 [2]) | IC50 (LP-1 [1]; Homo sapiens, LP-1, 96 h) [nM] | combinatorial effect by Loewe volumes (LP-1 [1]; [11]) | IC50 (KMS-28-BM; KMS-28BM, 96 h) [nM] | combinatorial effect by Loewe volumes (KMS-28-BM; [12]) | IC50 (L-363; Homo sapiens, L-363, 96 h) [nM] | combinatorial effect by Loewe volumes (L-363; [13]) | combinatorial effect by Loewe volumes (U266; [14]) | also measured
N[C@@H](Cc1ccc(N(CCCl)CCCl)cc1)C(=O)O [Melphalan, melphalan] | 2940 | > 10000 |  | > 10000 |  | 1120 |  | > 10000 |  |  | 
